Test results published in ChEMBL document CHEMBL5137082, “Discovery of a Novel Vascular Disrupting Agent Inhibiting Tubulin Polymerization and HDACs with Potent Antitumor Effects” (J Med Chem, 2022).
pIC50: −log10 of the molar value. Active and inactive are the calls of the source. No cut-off for these calls is given here.

Legend:
[1] = Toxicity in ICR mouse allografted with mouse H22 cells assessed as change in heart rate at 20 mg/kg, iv administered qd measured after 21 days; assay type: organism-based; settings: in vivo, 504 h, time 21 day
HepG2 [2] = experiment: Induction of apoptosis in human HepG2 cells assessed as viable cells at 30 nM incubated for 48 hrs by Annexin-V/PI-staining based flow cytometry (reference value: 91.44 +/- 0.74%); assay type: functional; settings: read-out: Activity
H22 = experiment: Antitumor activity against mouse H22 cells allografted in ICR mouse assessed as inhibition of tumor growth at 20 mg/kg, iv administered qd for 21 days measured after 12 days; assay type: functional, organism-based; settings: time 21.0 day
[3] = Toxicity in ICR mouse allografted with mouse H22 cells assessed as pathological changes in lung at 20 mg/kg, iv administered qd measured after 21 days by H and E staining based analysis; assay type: organism-based; settings: in vivo, 504 h, time 21 day
PC-3 [4] = experiment: Induction of apoptosis in human PC-3 cells assessed as mitochondrial membrane potential loss by measuring early apoptotic cells at 30 nM incubated for 48 hrs by JC1 staining based flow cytometry analysis (reference value: 6.50 +/- 0.17%); assay type: functional
HepG2 [5] = experiment: Induction of apoptosis in human HepG2 cells assessed as late apoptotic cells at 30 nM incubated for 48 hrs by Annexin-V/PI-staining based flow cytometry (reference value: 2.53 +/- 0.34%); assay type: functional
[6] = Metabolic stability in mouse assessed as intrinsic clearance; assay type: ADME; settings: 1 h, 1 µM, time < 60 min
HepG2 [7] = experiment: Induction of cell cycle arrest in human HepG2 cells assessed as accumulation G2 phase at 7.5 nM incubated for 48 hrs by propidium iodide staining based flow cytometry analysis (reference value: 23.55 +/- 0.29%); assay type: functional
MDA-MB-231 = experiment: Inhibition of cell migration in human MDA-MB-231 cells measured after 48 hrs by crystal violet staining based transwell assay; assay type: functional; settings: dose 7.5-30 nM, DDE = dose-dependent effect
[8] = Metabolic stability in mouse plasma assessed as compound remaining at 40 uM measured after 0.5 hrs by LC-MS/MS analysis (reference value: 100%); assay type: ADME, cell-free
[9] = biological target: T1, Protein deacetylase HDAC6 (Homo sapiens, UniProt Q9UBN7); experiment: Inhibition of HDAC6 in human HeLa cells using BOC-K(Ac)-AMC as substrate measured after 30 mins by fluorescence based microtiter plate reader assay; assay type: cell-based
T1 sequence (Q9UBN7 whole entry): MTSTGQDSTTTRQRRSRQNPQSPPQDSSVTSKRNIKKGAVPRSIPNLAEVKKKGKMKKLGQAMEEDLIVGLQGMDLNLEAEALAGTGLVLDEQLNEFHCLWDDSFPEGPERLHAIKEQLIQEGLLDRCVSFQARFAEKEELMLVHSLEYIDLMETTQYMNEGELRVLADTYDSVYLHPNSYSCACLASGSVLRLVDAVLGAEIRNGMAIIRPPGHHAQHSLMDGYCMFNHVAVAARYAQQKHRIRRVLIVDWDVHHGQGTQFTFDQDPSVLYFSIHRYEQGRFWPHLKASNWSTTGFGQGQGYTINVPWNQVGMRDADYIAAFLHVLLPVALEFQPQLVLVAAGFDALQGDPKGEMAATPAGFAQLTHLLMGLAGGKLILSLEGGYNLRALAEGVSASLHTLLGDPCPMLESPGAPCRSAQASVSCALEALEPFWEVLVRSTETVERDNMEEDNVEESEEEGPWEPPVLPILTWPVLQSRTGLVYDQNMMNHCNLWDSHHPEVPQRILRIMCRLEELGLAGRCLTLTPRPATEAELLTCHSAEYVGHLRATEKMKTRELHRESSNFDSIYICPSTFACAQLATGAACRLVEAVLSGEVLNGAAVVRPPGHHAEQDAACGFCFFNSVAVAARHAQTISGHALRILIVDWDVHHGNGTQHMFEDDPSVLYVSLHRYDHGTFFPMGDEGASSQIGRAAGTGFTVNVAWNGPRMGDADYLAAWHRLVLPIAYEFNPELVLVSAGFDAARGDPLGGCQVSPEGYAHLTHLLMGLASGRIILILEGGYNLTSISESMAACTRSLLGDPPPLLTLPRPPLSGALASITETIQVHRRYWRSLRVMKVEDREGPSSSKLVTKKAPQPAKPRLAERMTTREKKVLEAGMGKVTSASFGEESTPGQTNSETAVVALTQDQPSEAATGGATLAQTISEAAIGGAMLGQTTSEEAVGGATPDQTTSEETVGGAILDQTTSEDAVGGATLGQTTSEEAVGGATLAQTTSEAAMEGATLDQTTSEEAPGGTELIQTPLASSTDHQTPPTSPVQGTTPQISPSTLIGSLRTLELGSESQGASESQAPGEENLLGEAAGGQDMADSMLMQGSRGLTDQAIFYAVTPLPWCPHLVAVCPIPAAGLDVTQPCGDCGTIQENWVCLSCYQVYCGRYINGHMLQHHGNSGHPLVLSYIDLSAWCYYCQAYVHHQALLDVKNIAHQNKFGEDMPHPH

HepG2 [10] = experiment: Induction of apoptosis in human HepG2 cells assessed as downregulation of Bcl-2 protein expression measured after 24 hrs by Western blot analysis; assay type: functional, cell-based; settings: dose 7.5-30 nM, DDE = dose-dependent effect
HepG2 [11] = experiment: Induction of morphological changes in human HepG2 cells assessed as nuclear fragmentation at 7.5 to 30 nM after 48 hrs by Hoechst 33258 staining based fluorescence microscopic analysis; assay type: functional, cell-based; settings: dose 7.5-30 nM
Tubulin (Homo sapiens) [12] = biological target: T2, Tubulin (Homo sapiens) (UniProt P68371+Q9H4B7+P0DPH7+P68366+Q13509+Q71U36+P04350+Q3ZCM7+P07437+P68363+Q9BQE3+Q6PEY2+Q13885+Q9BVA1+Q9BUF5); experiment: Disruption of microtubule network in human HepG2 cells at 7.5 to 30 nM measured after 2 hrs by DAPI staining based immunofluorescence microscopic assay; assay type: cell-based; settings: dose 7.5-30 nM
[13] = Antiproliferative activity against HUVEC cells assessed as inhibition of cell growth measured after 24 hrs by MTT assay; assay type: toxicity, cell-based; settings: human
Tubulin (Homo sapiens) [14] = biological target: T2, Tubulin (Homo sapiens); experiment: Inhibition of [3H]Colchicine binding to tubulin (unknown origin) at 5 uM measured after 2 hrs by scintillation counting method relative to control; assay type: protein-complex assay
PC-3 [15] = experiment: Induction of apoptosis in human PC-3 cells assessed as mitochondrial membrane potential loss by measuring decrease in […] fluorescence at 7.5 nM incubated for 48 hrs by JC1 staining based flow cytometry analysis (reference value: 93.48 +/- 0.15%); assay type: functional; set-up: scale not given: the % may be the effect or the level left
Histone deacetylase 3 = Histone deacetylase 3 (Homo sapiens, UniProt O15379); experiment: Inhibition of HDAC3 in human HeLa cells using BOC-K(Ac)-AMC as substrate measured after 30 mins by fluorescence based microtiter plate reader assay; assay type: cell-based
Chain of Histone deacetylase 3 (O15379 whole entry): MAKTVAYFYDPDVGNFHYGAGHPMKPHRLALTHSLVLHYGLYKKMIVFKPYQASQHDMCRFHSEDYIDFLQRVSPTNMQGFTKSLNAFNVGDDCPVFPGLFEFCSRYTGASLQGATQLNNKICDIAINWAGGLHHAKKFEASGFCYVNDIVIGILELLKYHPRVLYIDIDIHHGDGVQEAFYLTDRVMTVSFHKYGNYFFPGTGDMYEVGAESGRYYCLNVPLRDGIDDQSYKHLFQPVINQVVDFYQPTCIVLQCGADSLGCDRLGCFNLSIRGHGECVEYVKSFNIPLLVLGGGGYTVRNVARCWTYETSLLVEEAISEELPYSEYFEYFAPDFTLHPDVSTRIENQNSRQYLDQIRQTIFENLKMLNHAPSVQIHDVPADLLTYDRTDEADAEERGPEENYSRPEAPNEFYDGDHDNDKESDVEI

[16] = Toxicity in ICR mouse allografted with mouse H22 cells assessed as systolic blood pressure at 20 mg/kg, iv administered qd measured after 21 days; assay type: organism-based; settings: in vivo, 504 h, time 21 day
HCT-116 = experiment: Antiproliferative activity against human HCT-116 cells assessed as inhibition of cell growth measured after 72 hrs by MTT assay; assay type: functional, cell-based; settings: HCT-116, 72 h
Tubulin = experiment: Inhibition of tubulin polymerization (unknown origin) preincubated for 15 mins followed by PEG and GTP addition measured after 30 mins by spectrophotometric method; assay type: protein-complex assay, Homo sapiens

SMILES: COc1ccc(CNC(=O)c2cc(F)ccc2N2CCOCC2)cc1/C=C/C(=O)NO
- Activity [1]: Non-Toxic
- viability at 0.03 µM (HepG2 [2]): 46.6%
- Activity (H22): Active
- Activity [3]: Non-Toxic
- Activity (PC-3 [4]): 59.5%
- Activity (HepG2 [5]): 15.68%
- CL [6]: 2.82 mL/min
- Activity (HepG2 [7]): 24.42%
- inhibition (MDA-MB-231): Dde
- Stability [8]: 59%
- pIC50 [9]: 6.86
- Activity (HepG2 [10]): Dde
- Activity (HepG2 [11]): Active
- Activity (Tubulin (Homo sapiens) [12]): Active
- IC50 at 24 h [13]: 271 nM
- inhibition (Tubulin (Homo sapiens) [14]): 63.4%
- Activity (PC-3 [15]): 76.73%
- pIC50 (Histone deacetylase 3): 6.62
- Activity [16]: Non-Toxic
- pIC50 (HCT-116): 7.55
- pIC50 (Tubulin): 5.39
